Source: US20130029928A1 (priority 2010, published 2013)
Where “and” joins values, the source holds several entries; their conditions need not be identical. Equal values may be shown once. Entries after “also recorded” stand apart in the source; their conditions may differ. Read-outs that look alike come from different tables or passages of the source.

What was measured:
[1] = PC3 xenograft in nude mice; format: in vivo, nude mouse; conditions: nude, mouse, plasma, intraperitoneal; PC3 model; 25 mg/kg three times weekly; 24 hrs post last dose; Day 29
Description: (§1) A parallel experiment was carried out using the prostate tumour cell line PC3.
(§2) These effects are consistent with a transient effect on the liver associated with mild toxicity and reversible liver enlargement. In rodents, this type of effect is usually due to hepatic PPARα activation associated with peroxisome proliferation.

[2] = system: PC3 (prostate) xenograft tumours; assay: PC3 xenograft in nude mice; format: in vivo, nude mouse
Description: as §1, §2

XBP1 mRNA = assay: RT-PCR analysis of XBP1 mRNA splicing in Panc-1 and HepG2 cells; format: cell-based, human; conditions: Panc-1 500-740 μM, HepG2 300 μM; 1-4 days
Description: XBP1-u: unspliced form of XBPI; XBPI-s: spliced form of XBP1.
1. Control; 2. 500 μM/1 day; 3. 500 μM/2 days; […]; 5. 500 μM/4 days; […]; 7. 740 μM/2 days.
Control/1 day; 2. Control/2 days; 3. Control/4 days; 4. Tunicamycin for 24 h; 5. Tunicamycin for 6 h; 6. 300 μM/1 day; 7. 300 μM/2 days; 8. 300 μM/3 days.

Water solubility = format: physicochemical
[3] = system: panel of human tumour-derived cell lines; assay: BrdU incorporation (cell proliferation) in the SRB cell line panel; format: cell-based; conditions: 48 hrs
SW1353 = assay: ATP depletion cytotoxicity assay 48 hr; format: cell-based, human
Description: (§3) Following exposure to Test Items, the CellTitre-Glo Luminescent Cell Viability Assay to measure ATP content was performed according to the manufacturer's detailed instructions (Promega Corporation, Technical Bulletin No. 288, and Cell notes, Issue 10, 2004).
(§4) Cells were plated at the optimal plating density for that cell line in 96-well plates and allowed to attach overnight. […] Cells were exposed to these compounds in Roswell Park Memorial Institute (RPMI) medium containing 10% Foetal Calf Serum (FCS) and 2 mM Glutamine at 37° C. and 5% CO2 for 48 hours. There were 3 replicates for each test item concentration.
(§5) Following exposure to Test Items, the CellTitre-Glo Luminescent Cell Viability Assay to measure ATP content will be performed according to the manufacturer's detailed instructions (Promega Corporation, Technical Bulletin No. 288, and Cell notes, Issue 10, 2004).

p21^WAF1 = assay: p21WAF1 transcription reporter (hCG excretion) in A2780/p21WAF1 cells; format: cell-based, human; conditions: 24 hrs exposure; β-hCG excretion
[4] = Phase I study CXR1002-001: urinary excretion; format: in vivo, human; conditions: 24 hour urine post each weekly dose
[5] = system: patients with advanced cancer; assay: Phase I study CXR1002-001: plasma HDL-C and LDL-C; format: in vivo, human; conditions: 6 weeks of treatment, % baseline
Source text: Individual patient raw data was captured and represented in graphs as % change from baseline (screening). […] Data represents either mean±SEM values or median, range+individual data points.

BxPc3 = assay: ATP depletion cytotoxicity assay 48 hr; format: cell-based, human
Description: as §3, §4, §5

Metabolism = conditions: patients / human
Source text: It is presumed that CXR1002 will eventually reach a steady state level after a number of doses, in an analogous way to its accumulative exposure in monkeys.
Unlike most other anti-tumour agents, PFOA is efficiently absorbed following oral exposure.

PC3 = assay: ATP depletion cytotoxicity assay 48 hr; format: cell-based, human
Description: (§6) Assay replicates were independent in time and up to 4 replicates were performed per cell line.
(§7) Cells were plated at the optimal plating density for that cell line in 96-well plates and allowed to attach overnight. The next day, the medium was removed and replaced with fresh medium containing the dose ranges of test items. […] There were 3 replicates for each test item concentration.
as §3
(§8) Cells were plated at the optimal plating density for that cell line in 96-well plates and allowed to attach overnight. The next day, cells were pre-treated with the inhibitors UO126 or LY294002 (see Tables 18 & 20) for 2 hrs, the medium was removed and replaced with fresh medium containing the appropriate dose of the test item. […] Cells were exposed to these compounds in Roswell Park Memorial Institute (RPMI) medium containing 10% Foetal Calf Serum (FCS) and 2 mM Glutamine at 37° C. and 5% CO2 for 48 hours. There were 3 replicates for each test item concentration.
as §5

CaCo-2 = assay: ATP depletion cytotoxicity assay 48 hr; format: cell-based, human
Description: as §6, §7, §3, §8, §5

HepG2 = assay: SRB cytotoxicity assay 48 hr; format: cell-based, human; conditions: read-out: IC50 Values After 48 Hrs Exposure
Description: (§9) The SRB assay was performed according to the method specified by the NIC/NIH. […] Assay replicates were independent in time and up to 4 replicates were performed per cell line.

HT1080 = assay: ATP depletion cytotoxicity assay 48 hr; format: cell-based; conditions: Homo sapiens, HT-1080, Study CXR0798, read-out: IC50 1
Description: as §9

[6] = system: pregnenolone X receptor (PXR); conditions: species-specific basis; Ren (2009); cited from earlier work
CYP2C9 = CYP2C9 (Homo sapiens, UniProt P11712); assay: Cytochrome P450 isozyme inhibition; format: in vitro ADME; conditions: under the conditions used (unpublished data); read-out: IC50 towards CYP2C9
Source text: There is no evidence that APFO is metabolised in mammals once dissociated to form perfluorooctanoate.

A2780 = assay: SRB cytotoxicity assay 48 hr; format: cell-based, human; conditions: read-out: IC50 Values After 48 Hrs Exposure
Description: as §9

[7] = system: panel of human tumour-derived cell lines; assay: Hoechst 3342 staining (apoptotic cells) in the SRB cell line panel; format: cell-based
HT-29 = assay: SRB cytotoxicity assay 48 hr; format: cell-based, human; conditions: read-out: IC50 Values After 48 Hrs Exposure
Description: as §9

A549 = assay: SRB cytotoxicity assay 48 hr; format: cell-based, human; conditions: read-out: IC50 Values After 48 Hrs Exposure
Description: as §9

[8] = system: patients with advanced cancer; assay: Phase I study CXR1002-001: safety and toxicity; format: in vivo, human; conditions: at the doses examined to date
Source text: These patients then underwent repeat dosing schedule with the same dose of CXR1002. […] Dose limiting toxicity (DLT) will be based on the toxicity assessments over the first 3-week period of the repeat dosing schedule. PK samples (single blood sample) were taken on the following basis: • Every 6 weeks during the repeat dosing phase • If dosing is interrupted or stopped, samples will be taken at intervals according to patient convenience • PK sampling for safety evaluation may take place at any time, as clinically indicated
In all dose cohorts subsequent to the initial dose cohort, all patients will be treated with weekly administration of study drug from the start of dosing. Dose escalation was performed after all patients at the preceding dose level had completed a 3-week repeat dosing period.

TOV-21G = assay: ATP depletion cytotoxicity assay 48 hr; format: cell-based, human
Description: as §6, §7, §3, §8, §5

Plasma protein binding = format: in vitro ADME
U2OS = assay: ATP depletion cytotoxicity assay 48 hr; format: cell-based; conditions: Homo sapiens, Study CXR0798, read-out: IC50 1
Description: as §9

[9] = ATP depletion, 48 hrs, read-out: IC50 1-4 (independent replicates)

Sequence of CYP2C9 (P11712 whole entry): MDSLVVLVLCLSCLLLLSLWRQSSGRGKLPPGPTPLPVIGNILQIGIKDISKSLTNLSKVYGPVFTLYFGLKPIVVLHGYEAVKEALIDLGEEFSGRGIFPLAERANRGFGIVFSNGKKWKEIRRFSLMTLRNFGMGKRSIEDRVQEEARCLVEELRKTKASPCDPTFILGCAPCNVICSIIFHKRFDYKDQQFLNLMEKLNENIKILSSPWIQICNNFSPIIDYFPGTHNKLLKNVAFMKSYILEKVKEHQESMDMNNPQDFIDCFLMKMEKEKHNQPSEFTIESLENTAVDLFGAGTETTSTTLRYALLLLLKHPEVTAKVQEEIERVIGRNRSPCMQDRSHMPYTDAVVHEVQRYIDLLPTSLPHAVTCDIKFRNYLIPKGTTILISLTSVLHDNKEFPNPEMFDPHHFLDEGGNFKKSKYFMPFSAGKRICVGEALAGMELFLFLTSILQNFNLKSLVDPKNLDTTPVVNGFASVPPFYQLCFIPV

For `O=C(O)C(F)(F)C(F)(F)C(F)(F)C(F)(F)C(F)(F)C(F)(F)C(F)(F)F` [CXR1002], the concentration at 24 h [1] was 281 µM, the effect on tumours ([2]; 5, 15 and 25 mg/kg i.p.) was “marked anti-tumour effect” and the “increase in plasma ALT” value ([2]; PC3-tumour bearing mice) was “up to 1.8 fold”. For the same compound, the “Absolute Tumour Volume as a Percentage of Saline Control” value ([2]; PC3, 25 mg/kg i.p., Day 25) was 19.14%, the “effect on body weight” value ([2]; PC3 model) was “No marked effects on body weight” and the liver weight ([2]; PC3 model) was “increase in liver weight”. For the same compound, the “Terminal / maximum CXR1002 plasma level” value ([2]; PC3 model, 25 mg/kg three times weekly, 24 hrs post last dose, Day 29) was 281 µM, the “increase in plasma AST” value ([2]; mice bearing PC3 xenografts) was “up to 3.5 fold” and the “plasma glucose and triglyceride levels” value ([2]; tumour-bearing nude mice, PC-3) was “slight reductions”. The “XBP-1 mRNA splicing” value (XBP1 mRNA) was “varies from predominately unspliced to spliced”, the solubility in water (Water solubility) was “freely soluble in water; also recorded: highly water soluble” and the BrdU incorporation ([3]; 10 μM) was “No marked effects”. For the same compound, the BrdU incorporation ([3]; 30 μM) was “variable”, the BrdU incorporation ([3]; 300 μM, all but one of the cell lines) was “Significant suppression of BrdU incorporation” and the IC50 (SW1353; Homo sapiens, SW1353, 48 h, read-out: IC50 1-4 (independent replicates)) was over 1000 µM. The IC50 (SW1353; Homo sapiens, SW1353, 48 h, read-out: IC50 Mean) was over 1000 µM, the IC50 (SW1353; read-out: IC50 1-4 (independent replicates), ATP depletion, 48 hrs, SW1353) was over 1000 µM and the “activation of transcription of p21^WAF1” value (p21^WAF1) was “did not activate transcription”. The urinary excretion [4] was “increases with multiple doses”, the “effect on plasma HDL-C” value [5] was “remains unchanged” and the “effect on plasma LDL-C” value [5] was “lowering effect”. The IC50 (BxPc3; [9]) was 350 µM and 400 µM, the IC50 (BxPc3; Homo sapiens, BXPC-3, 48 h, ATP depletion, 48 hrs, read-out: IC50 1-4 (independent replicates)) was 370 µM and the IC50 (BxPc3; Homo sapiens, BXPC-3, 48 h, ATP depletion, 48 hrs, read-out: IC50 Mean) was 373 µM. The IC50 (BxPc3; Homo sapiens, BXPC-3, 48 h, Example 7, 48 hour, CXR1002 0-1 mM, U0126 fixed 10 μM where combined, read-out: IC50) was 381 µM, the metabolism (Metabolism) was “not metabolised” and the IC50 (PC3; Homo sapiens, PC-3, 48 h, read-out: IC50 1-4 (independent replicates)) was 650 µM. For the same compound, the IC50 (PC3; Homo sapiens, PC-3, 48 h, read-out: IC50 Mean) was 642 µM, the IC50 (PC3; read-out: IC50 1-4 (independent replicates)) was 625 µM and the IC50 (CaCo-2; ATP depletion, 48 hrs, CaCo-2, read-out: IC50 1-4 (independent replicates)) was 690 µM and 670 µM. It also gave an IC50 (CaCo-2; Homo sapiens, Caco-2, 48 h, ATP depletion, 48 hrs, CaCo-2, read-out: IC50 1-4 (independent replicates)) of 680 µM, an IC50 (CaCo-2; Homo sapiens, Caco-2, 48 h, ATP depletion, 48 hrs, CaCo-2, read-out: IC50 Mean) of 680 µM and an IC50 (CaCo-2; Homo sapiens, Caco-2, 48 h, Example 7, 48 hour, CaCO2, CXR1002 0-1 mM, U0126 fixed 10 μM where combined, read-out: IC50) of 704 µM. For the same compound, the IC50 (HepG2) was 162 ± 31.8 µM, the IC50 (HT1080) was over 1000 µM and the “activation of PXR” value [6] was “are activated”. For the same compound, the IC50 (CYP2C9) was 0.76 µM, the IC50 (A2780) was 238 ± 7.5 µM and the induction of apoptosis ([7]; 10 μM) was “little effect”. The induction of apoptosis ([7]; 30 μM) was “variable responses”, the induction of apoptosis ([7]; 300 μM) was “marked induction of apoptosis” and the IC50 (HT-29) was 342 ± 10.6 µM. For the same compound, the IC50 (A549) was 230 ± 21.8 µM, the clinical toxicity [8] was “relatively non-toxic” and the IC50 (TOV-21G; [9]) was 600 µM and 700 µM. The IC50 (TOV-21G; Homo sapiens, TOV21G, 48 h, ATP depletion, 48 hrs, read-out: IC50 1-4 (independent replicates)) was 610 µM, the IC50 (TOV-21G; Homo sapiens, TOV21G, 48 h, ATP depletion, 48 hrs, read-out: IC50 Mean) was 637 µM and the IC50 (TOV-21G; Homo sapiens, TOV21G, 48 h, Example 7, 48 hour, CXR1002 0-1 mM, U0126 fixed 10 μM where combined, read-out: IC50) was 615 µM. The plasma protein binding (Plasma protein binding) was “highly plasma protein bound” and the IC50 (U2OS) was over 1000 µM.
